Values quoted from earlier work in patent publication US12533388B2, “Compositions and methods for prevention and treatment of immune deficiency and inflammation” (The United States GOVERNMENT As Represented By The …, priority 2020, dated 2026).

Key:
[1] = system: STZ-induced diabetic mice; conditions: as compared to the STZ-induced diabetic control group without CHP treatment
[2] = system: rat insulinoma cells (RINm5F); conditions: in vitro
Saccharomyces cerevisae = conditions: by inhibiting chitinase

O=C1N[C@@H](Cc2cnc[nH]2)C(=O)N2CCC[C@@H]12 [CHP, Cyclo (His-Pro)]
Oral glucose tolerance test (OGTT) values [1]: significantly decreased
plasma glucose levels dropped [1]: 60%
STZ-induced cytotoxicity and apoptosis [2]: prevented
growth of Saccharomyces cerevisae (Saccharomyces cerevisae): inhibit
